Values quoted from earlier work in US20120087953A1, “PHARMACEUTICAL COMPOSITIONS OF ACTIVE PHARMACEUTICAL INGREDIENT COMPRISING SULPHONYLUREA MOIETY WITH EXCELLENT DISSOLUTION PROPERTIES” (LEK PHARMACEUTICALS D.D., priority 2009, published 2012).

Settings: acidic medium, 37° C.

solubility: less than 0.001 mg/mL
SMILES: CCC1=C(C)CN(C(=O)NCCc2ccc(S(=O)(=O)NC(=O)N[C@H]3CC[C@H](C)CC3)cc2)C1=O [glimepiride]
